Results taken from ChEMBL document CHEMBL3286334, “Identification of tetrapeptides from a mixture based positional scanning library that can restore nM full agonist function of the L106P, I69T, I102S, A219V, C271Y, and C271R human melanocortin-4 polymorphic receptors (hMC4Rs)” (J Med Chem, 2014).
Where a SMILES comes first, the peptide text is derived from it. [ ]: non-standard residue; d: D form. Phe(4-I) = N[C@@H](Cc1ccc(I)cc1)C(=O)O; dPhe(4-I) = N[C@H](Cc1ccc(I)cc1)C(=O)O; Tic = O=C(O)[C@@H]1Cc2ccccc2CN1; dTic = O=C(O)[C@H]1Cc2ccccc2CN1

Assays:
Assay type in all cases: functional, cell-based
Melanocortin receptor 4 [1] = target: Melanocortin receptor 4 (Homo sapiens, UniProt P32245); assay: Agonist activity at wild type human melanocortin-4 receptor expressed in HEK293 cells co-transfected with CRE/beta-galactosidase reporter gene assessed as stimulatory response after 6 hrs
Melanocortin receptor 4 [2] = target: Melanocortin receptor 4 (Homo sapiens, UniProt P32245, L106P); assay: Agonist activity at human melanocortin-4 receptor L106P mutant expressed in HEK293 cells co-transfected with CRE/beta-galactosidase reporter gene assessed as stimulatory response after 6 hrs
Melanocortin receptor 4 [3] = target: Melanocortin receptor 4 (Homo sapiens, UniProt P32245, C271Y); assay: Agonist activity at human melanocortin-4 receptor C271Y mutant expressed in HEK293 cells co-transfected with CRE/beta-galactosidase reporter gene assessed as stimulatory response after 6 hrs
[4] = target: Melanocyte-stimulating hormone receptor (Mus musculus, UniProt Q01727); assay: Agonist activity at mouse melanocortin-1 receptor expressed in HEK293 cells co-transfected with CRE/beta-galactosidase reporter gene assessed as stimulatory response after 6 hrs
Melanocortin receptor 4 [5] = target: Melanocortin receptor 4 (Homo sapiens, UniProt P32245, I102S); assay: Agonist activity at human melanocortin-4 receptor I102S mutant expressed in HEK293 cells co-transfected with CRE/beta-galactosidase reporter gene assessed as stimulatory response after 6 hrs
Melanocortin receptor 4 [6] = target: Melanocortin receptor 4 (Homo sapiens, UniProt P32245, I69T); assay: Agonist activity at human melanocortin-4 receptor I69T mutant expressed in HEK293 cells co-transfected with CRE/beta-galactosidase reporter gene assessed as stimulatory response after 6 hrs
Melanocortin receptor 4 [7] = target: Melanocortin receptor 4 (Homo sapiens, UniProt P32245, A219V); assay: Agonist activity at human melanocortin-4 receptor A219V mutant expressed in HEK293 cells co-transfected with CRE/beta-galactosidase reporter gene assessed as stimulatory response after 6 hrs
Melanocortin receptor 4 [8] = target: Melanocortin receptor 4 (Mus musculus, UniProt P56450); assay: Agonist activity at mouse melanocortin-4 receptor expressed in HEK293 cells co-transfected with CRE/beta-galactosidase reporter gene assessed as stimulatory response after 6 hrs
Melanocortin receptor 5 = Melanocortin receptor 5 (Mus musculus, UniProt P41149); assay: Agonist activity at mouse melanocortin-5 receptor expressed in HEK293 cells co-transfected with CRE/beta-galactosidase reporter gene assessed as stimulatory response after 6 hrs
Melanocortin receptor 3 = Melanocortin receptor 3 (Mus musculus, UniProt P33033); assay: Agonist activity at mouse melanocortin-3 receptor expressed in HEK293 cells co-transfected with CRE/beta-galactosidase reporter gene assessed as stimulatory response after 6 hrs

| Structure (SMILES) | EC50 (Melanocortin receptor 4 [1]) [nM] | EC50 (Melanocortin receptor 4 [2]) [nM] | other results |
| --- | --- | --- | --- |
| CC(=O)N[C@@H](Cc1c[nH]cn1)C(=O)N[C@H](Cc1ccccc1)C(=O)N1Cc2ccccc2C[C@H]1C(=O)N[C@@H](Cc1c[nH]c2ccccc12)C(N)=O |  |  | EC50 (Melanocortin receptor 4 [1]; hek293): 204 nM; EC50 (Melanocortin receptor 4 [2]; hek293): 18800 nM |
| CC(=O)N1Cc2ccccc2C[C@H]1C(=O)N[C@H](Cc1ccccc1)C(=O)N[C@@H](CCCNC(=N)N)C(=O)N[C@@H](Cc1c[nH]c2ccccc12)C(N)=O (Ac-[Tic][dF]RW-NH2) |  |  | EC50 (Melanocortin receptor 4 [1]; hek293): 15 nM; EC50 (Melanocortin receptor 4 [2]; hek293): 4940 nM |
| CC(=O)N[C@@H](CCCNC(=N)N)C(=O)N[C@H](Cc1ccc(Cl)cc1)C(=O)N[C@@H](CCCNC(=N)N)C(=O)N1Cc2ccccc2C[C@H]1C(N)=O | 110 | 2720 |  |
| CC(=O)N[C@@H](Cc1c[nH]cn1)C(=O)N[C@H](Cc1ccc(Cl)cc1)C(=O)N[C@@H](CCCNC(=N)N)C(=O)N1Cc2ccccc2C[C@H]1C(N)=O | 110 | 7780 |  |
| CC(=O)N[C@@H](Cc1cnc[nH]1)C(=O)N[C@H](Cc1ccc(Cl)cc1)C(=O)N1Cc2ccccc2CC1C(=O)N[C@@H](Cc1ccc(I)cc1)C(N)=O (stereo partly drawn) | 15 | 790 |  |
| CC(=O)N[C@@H](Cc1cnc[nH]1)C(=O)N[C@H](Cc1ccc(I)cc1)C(=O)N[C@@H](CCCNC(=N)N)C(=O)N[C@@H](Cc1ccc(I)cc1)C(N)=O (Ac-H[dPhe(4-I)]R[Phe(4-I)]-NH2) |  |  | EC50 (Melanocortin receptor 4 [3]): > 100000 nM; EC50 [4]: 12 nM |
| CC(=O)N[C@@H](CCCNC(=N)N)C(=O)N[C@H](Cc1ccccc1)C(=O)N[C@@H](CCCNC(=N)N)C(=O)N[C@@H](Cc1c[nH]c2ccccc12)C(N)=O | 1.06 | 124 |  |
| CC(=O)N1Cc2ccccc2C[C@H]1C(=O)N[C@H](Cc1ccc(I)cc1)C(=O)N1Cc2ccccc2C[C@H]1C(=O)N[C@H](Cc1ccc([N+](=O)[O-])cc1)C(N)=O | 5.1 | 280 |  |
| CC(=O)N1Cc2ccccc2C[C@H]1C(=O)N[C@H](Cc1ccc(Cl)cc1)C(=O)N[C@@H](CCCNC(=N)N)C(=O)N[C@H](Cc1ccc([N+](=O)[O-])cc1)C(N)=O | 40 | 710 |  |
| CC(=O)N1Cc2ccccc2C[C@H]1C(=O)N[C@H](Cc1ccc(Cl)cc1)C(=O)N1Cc2ccccc2C[C@H]1C(=O)N[C@H](Cc1ccc([N+](=O)[O-])cc1)C(N)=O | 9.6 | 310 |  |
| CC(=O)N[C@@H](Cc1cnc[nH]1)C(=O)N[C@H](Cc1ccccc1)C(=O)N[C@@H](CCCNC(=N)N)C(=O)N1Cc2ccccc2CC1C(N)=O (stereo partly drawn) | > 10000 | > 100000 |  |
| CC(=O)N1Cc2ccccc2C[C@H]1C(=O)N[C@H](Cc1ccc(Cl)cc1)C(=O)N[C@@H](CCCNC(=N)N)C(=O)N1Cc2ccccc2C[C@H]1C(N)=O | 960 | 15500 |  |
| CC(=O)N[C@@H](CCCNC(=N)N)C(=O)N[C@H](Cc1ccc(I)cc1)C(=O)N[C@@H](CCCNC(=N)N)C(=O)N[C@@H](Cc1ccc(I)cc1)C(N)=O |  | 4.4 | EC50 (Melanocortin receptor 4 [5]): 3.5 nM; EC50 (Melanocortin receptor 4 [3]): > 100000 nM |
| CC(=O)N[C@@H](CCCNC(=N)N)C(=O)N[C@H](Cc1ccc(I)cc1)C(=O)N1Cc2ccccc2C[C@H]1C(=O)N[C@H](Cc1ccc([N+](=O)[O-])cc1)C(N)=O | 0.26 | 2.6 | EC50 (Melanocortin receptor 4 [6]): 4.1 nM; EC50 (Melanocortin receptor 4 [5]): 2.9 nM; EC50 (Melanocortin receptor 4 [7]): 6.1 nM; EC50 (Melanocortin receptor 4 [3]): 19700 nM; EC50 [4]: 2.7 nM; EC50 (Melanocortin receptor 4 [8]): 2.7 nM; EC50 (Melanocortin receptor 5): 1.1 nM |
| CC(=O)N[C@@H](Cc1cnc[nH]1)C(=O)N[C@H](Cc1ccccc1)C(=O)N[C@@H](CCCCN)C(=O)N[C@@H](Cc1c[nH]c2ccccc12)C(N)=O | 40 | 6240 |  |
| CC(=O)N[C@@H](CCCNC(=N)N)C(=O)N[C@H](Cc1ccc(I)cc1)C(=O)N1Cc2ccccc2CC1C(=O)N[C@@H](Cc1ccc(I)cc1)C(N)=O (stereo partly drawn) | 203 | 2230 |  |
| CC(=O)N[C@@H](CCCNC(=N)N)C(=O)N[C@H](Cc1ccc(Cl)cc1)C(=O)N1Cc2ccccc2CC1C(=O)N[C@@H](Cc1ccc(I)cc1)C(N)=O (stereo partly drawn) | 22 | 215 |  |
| CC(=O)N[C@@H](Cc1cnc[nH]1)C(=O)N[C@H](Cc1ccc(I)cc1)C(=O)N1Cc2ccccc2CC1C(=O)N[C@H](Cc1ccc([N+](=O)[O-])cc1)C(N)=O (stereo partly drawn) |  |  | EC50 (Melanocortin receptor 3): 35 nM |
| CC(=O)N[C@H](CCCNC(=N)N)C(=O)N[C@H](Cc1ccccc1)C(=O)N[C@@H](CCCNC(=N)N)C(=O)N[C@@H](Cc1c[nH]c2ccccc12)C(N)=O | 40 | 1240 |  |
| CC(=O)N1Cc2ccccc2C[C@H]1C(=O)N[C@H](Cc1ccc(I)cc1)C(=O)N[C@@H](CCCNC(=N)N)C(=O)N[C@H](Cc1ccc([N+](=O)[O-])cc1)C(N)=O | 20 | 657 |  |

| Structure (SMILES) | EC50 (Melanocortin receptor 4 [1]) [nM] | EC50 (Melanocortin receptor 4 [2]) [nM] | other results |
| --- | --- | --- | --- |
| CC(=O)N1Cc2ccccc2CC1C(=O)N[C@H](Cc1ccc(Cl)cc1)C(=O)N1Cc2ccccc2CC1C(=O)N[C@@H](Cc1ccc(I)cc1)C(N)=O (stereo partly drawn) | 120 | 2670 |  |
| CC(=O)N[C@@H](Cc1ccc(O)cc1)C(=O)N[C@H](Cc1ccccc1)C(=O)N[C@@H](CCCNC(=N)N)C(=O)N[C@@H](Cc1c[nH]c2ccccc12)C(N)=O (Ac-Y[dF]RW-NH2) | 6.2 | 540 |  |
| CC(=O)N[C@@H](CCCNC(=N)N)C(=O)N[C@H](Cc1ccc(Cl)cc1)C(=O)N1Cc2ccccc2C[C@H]1C(=O)N1Cc2ccccc2C[C@H]1C(N)=O | 250 | 2450 |  |
| CC(=O)N1Cc2ccccc2CC1C(=O)N[C@H](Cc1ccc(I)cc1)C(=O)N[C@@H](CCCNC(=N)N)C(=O)N[C@@H](Cc1ccc(I)cc1)C(N)=O (stereo partly drawn) | 4.26 | 440 |  |
| CC(=O)N[C@@H](Cc1c[nH]cn1)C(=O)N[C@H](Cc1ccc(I)cc1)C(=O)N[C@@H](CCCNC(=N)N)C(=O)N1Cc2ccccc2C[C@H]1C(N)=O (Ac-H[dPhe(4-I)]R[Tic]-NH2) | 89 | 6920 |  |
| CC(=O)N[C@@H](Cc1c[nH]c2ccccc12)C(=O)N[C@H](Cc1ccccc1)C(=O)N[C@@H](CCCN=C(N)N)C(=O)N[C@@H](Cc1c[nH]c2ccccc12)C(N)=O (Ac-W[dF]RW-NH2) | 32 | 170 |  |
| CC(=O)N[C@@H](CCCNC(=N)N)C(=O)N[C@H](Cc1ccc(I)cc1)C(=O)N1Cc2ccccc2C[C@H]1C(=O)N1Cc2ccccc2C[C@H]1C(N)=O | 2260 | 27500 |  |
| CC(=O)N[C@@H](Cc1cnc[nH]1)C(=O)N[C@H](Cc1ccc(Cl)cc1)C(=O)N[C@@H](CCCNC(=N)N)C(=O)N[C@@H](Cc1ccc(I)cc1)C(N)=O |  |  | EC50 [4]: 19 nM |
| CC(=O)N[C@@H](Cc1cnc[nH]1)C(=O)N[C@H](Cc1ccc(Cl)cc1)C(=O)N1Cc2ccccc2CC1C(=O)N[C@H](Cc1ccc([N+](=O)[O-])cc1)C(N)=O (stereo partly drawn) |  |  | EC50 (Melanocortin receptor 3): 55 nM |
| CC(=O)N[C@@H](Cc1cnc[nH]1)C(=O)N[C@H](Cc1ccccc1)C(=O)N[C@@H](CCCNC(=N)N)C(=O)N[C@@H](Cc1ccc([N+](=O)[O-])cc1)C(N)=O | 195 | 23000 |  |
| CC(=O)N1Cc2ccccc2C[C@H]1C(=O)N[C@H](Cc1ccc(I)cc1)C(=O)N[C@@H](CCCNC(=N)N)C(=O)N1Cc2ccccc2C[C@H]1C(N)=O | 280 | 2260 |  |
| CC(=O)N1Cc2ccccc2C[C@@H]1C(=O)N[C@H](Cc1ccccc1)C(=O)N[C@@H](CCCN=C(N)N)C(=O)N[C@@H](Cc1c[nH]c2ccccc12)C(N)=O (Ac-[dTic][dF]RW-NH2) | 297 | 17900 |  |
| CC(=O)N[C@@H](Cc1c[nH]cn1)C(=O)N[C@H](Cc1ccc(Cl)cc1)C(=O)N1Cc2ccccc2C[C@H]1C(=O)N1Cc2ccccc2C[C@H]1C(N)=O | 160 | 11400 |  |
| CC(=O)N[C@@H](CCCNC(=N)N)C(=O)N[C@H](Cc1ccc(I)cc1)C(=O)N1Cc2ccccc2CC1C(=O)N[C@H](Cc1ccc([N+](=O)[O-])cc1)C(N)=O (stereo partly drawn) |  |  | EC50 (Melanocortin receptor 3): 47 nM |
| CC(=O)N[C@@H](CCCNC(=N)N)C(=O)N[C@H](Cc1ccc(I)cc1)C(=O)N[C@@H](CCCNC(=N)N)C(=O)N1Cc2ccccc2C[C@H]1C(N)=O | 57 | 3170 |  |
| CC(=O)N[C@@H](Cc1cnc[nH]1)C(=O)N[C@H](Cc1ccc(I)cc1)C(=O)N1Cc2ccccc2CC1C(=O)N[C@@H](Cc1ccc(I)cc1)C(N)=O (stereo partly drawn) | 7.42 | 570 |  |
| CC(=O)N[C@@H](Cc1c[nH]cn1)C(=O)N[C@H](Cc1ccc(I)cc1)C(=O)N1Cc2ccccc2C[C@H]1C(=O)N1Cc2ccccc2C[C@H]1C(N)=O | 24 | 3760 |  |
| CC(=O)N1Cc2ccccc2CC1C(=O)N[C@H](Cc1ccc(Cl)cc1)C(=O)N[C@@H](CCCNC(=N)N)C(=O)N[C@@H](Cc1ccc(I)cc1)C(N)=O (stereo partly drawn) | 2.6 | 380 |  |
| CC(=O)N[C@@H](CCCNC(=N)N)C(=O)N[C@H](Cc1ccc(Cl)cc1)C(=O)N1Cc2ccccc2CC1C(=O)N[C@H](Cc1ccc([N+](=O)[O-])cc1)C(N)=O (stereo partly drawn) |  |  | EC50 (Melanocortin receptor 3): 94 nM |
| CC(=O)N[C@@H](CCCNC(=N)N)C(=O)N[C@H](Cc1ccc(Cl)cc1)C(=O)N[C@@H](CCCNC(=N)N)C(=O)N[C@@H](Cc1ccc(I)cc1)C(N)=O |  | 13 | EC50 (Melanocortin receptor 4 [3]): > 100000 nM |
